Earlier results on 1 compound are cited in US7074355B2, “Process for dry granulation by agitative balling for the preparation of chemically stable, dry-flow, low compact, dust free, soluble spherical granules of phosphoroamidothioate” (United Phosphorus Ltd., priority 2003, dated 2006).

The data set has as its system insects. The note with it: systemic and contact insecticide of moderate persistence.

Take `COP(=O)(NC(C)=O)SC` (stereo not shown) [Acephate]: the residual activity lasting was 10 to 15 days.
